Measurements: ChEMBL document CHEMBL3885861, “Open TG-GATES”

Species: Rattus norvegicus
Test: Open TG-GATES - Regimen: Single
Type: toxicity, organism-based, Sprague-Dawley
Parameters: regimen Single, gender Male, age 6 weeks
Details: in vivo, po, 15 mg/kg, route gavage, dose level Low; for APTT / Bas / Eos / Fbg / Hb / Ht / Lym / MCH / MCHC / MCV / Mono / Neu / PT / Plat / RBC / Ret / WBC: tissue Blood; for KIDNEY_L / KIDNEY_R / KIDNEY_TOTAL: tissue Kidney; for LIVER: tissue Liver; for A/G / ALP / ALT / AST / BUN / CRE / Ca / Cl / DBIL / GLC / IP / K / LDH / Na / PL / RALB / TBIL / TC / TG / TP / gamma-GTP: tissue Plasma

## CC1=C(CC(=O)O)c2cc(F)ccc2/C1=C\c1ccc([S+](C)[O-])cc1 (configuration not stated)
3 h
  TERMINAL_BW: 200.6 g
  APTT: 22.7 s
  Bas: 0%
  Eos: 1%
  Fbg: 290.6 mg/dL
  Hb: 13.4 g/dL
  Ht: 40.8%
  Lym: 74.8%
  MCH: 21.4 pg
  MCHC: 32.8%
  MCV: 65.3 fL
  Mono: 3%
  Neu: 21%
  PT: 14 s
  Plat: 130.1 x10_4/uL
  RBC: 625.6 x10_4/ul
  Ret: 8.8%
  WBC: 78.5 x10_2/uL
  KIDNEY_L: 1 g
  KIDNEY_R: 0.9 g
  KIDNEY_TOTAL: 1.9 g
  LIVER: 9.3 g
  A/G: 0.9
  ALP: 1384.2 IU/L
  ALT: 40.4 IU/L
  AST: 69.6 IU/L
  BUN: 11 mg/dL
  CRE: 0.2 mg/dL
  Ca: 10.9 mg/dL
  Cl: 105 meq/L
  DBIL: 0.01 mg/dL
  GLC: 173.2 mg/dL
  IP: 8.4 mg/dL
  K: 4 meq/L
  LDH: 66.8 IU/L
  Na: 140.8 meq/L
  PL: 140.6 mg/dL
  RALB: 2.6 g/dL
  TBIL: 0.036 mg/dL
  TC: 71.2 mg/dL
  TG: 65.6 mg/dL
  TP: 5.3 g/dL
  gamma-GTP: 1 IU/L
6 h
  TERMINAL_BW: 201 g
  APTT: 16.5 s
  Bas: 0%
  Eos: 1%
  Fbg: 279.2 mg/dL
  Hb: 13.5 g/dL
  Ht: 41.4%
  Lym: 74%
  MCH: 20.8 pg
  MCHC: 32.6%
  MCV: 63.7 fL
  Mono: 2.4%
  Neu: 22.4%
  PT: 14.1 s
  Plat: 115.6 x10_4/uL
  RBC: 650.4 x10_4/ul
  Ret: 8.1%
  WBC: 70.2 x10_2/uL
  KIDNEY_L: 0.9 g
  KIDNEY_R: 0.9 g
  KIDNEY_TOTAL: 1.7 g
  LIVER: 8.2 g
  A/G: 1
  ALP: 1365.6 IU/L
  ALT: 41.4 IU/L
  AST: 72.4 IU/L
  BUN: 9 mg/dL
  CRE: 0.2 mg/dL
  Ca: 10.8 mg/dL
  Cl: 106.8 meq/L
  DBIL: 0.006 mg/dL
  GLC: 172.8 mg/dL
  IP: 9.3 mg/dL
  K: 4.3 meq/L
  LDH: 73.2 IU/L
  Na: 141.4 meq/L
  PL: 137.6 mg/dL
  RALB: 2.5 g/dL
  TBIL: 0.03 mg/dL
  TC: 78.6 mg/dL
  TG: 40 mg/dL
  TP: 5.2 g/dL
  gamma-GTP: 1.4 IU/L
9 h
  TERMINAL_BW: 198.6 g
  APTT: 16.9 s
  Bas: 0%
  Eos: 0.8%
  Fbg: 285.6 mg/dL
  Hb: 13.2 g/dL
  Ht: 40.7%
  Lym: 81.4%
  MCH: 21 pg
  MCHC: 32.4%
  MCV: 64.8 fL
  Mono: 2%
  Neu: 15.2%
  PT: 14.2 s
  Plat: 128.1 x10_4/uL
  RBC: 627.6 x10_4/ul
  Ret: 8.8%
  WBC: 72.2 x10_2/uL
  KIDNEY_L: 0.9 g
  KIDNEY_R: 0.9 g
  KIDNEY_TOTAL: 1.8 g
  LIVER: 7.7 g
  A/G: 0.9
  ALP: 1238.2 IU/L
  ALT: 43.4 IU/L
  AST: 74.4 IU/L
  BUN: 10.6 mg/dL
  CRE: 0.2 mg/dL
  Ca: 10.7 mg/dL
  Cl: 108 meq/L
  DBIL: 0.008 mg/dL
  GLC: 173.6 mg/dL
  IP: 9.9 mg/dL
  K: 4.1 meq/L
  LDH: 65.2 IU/L
  Na: 142.2 meq/L
  PL: 135.4 mg/dL
  RALB: 2.5 g/dL
  TBIL: 0.042 mg/dL
  TC: 76.2 mg/dL
  TG: 37.6 mg/dL
  TP: 5.2 g/dL
  gamma-GTP: 1 IU/L
24 h
  TERMINAL_BW: 215 g
  APTT: 22.5 s
  Bas: 0%
  Eos: 1%
  Fbg: 310.4 mg/dL
  Hb: 14 g/dL
  Ht: 43.7%
  Lym: 77.4%
  MCH: 21 pg
  MCHC: 32%
  MCV: 65.8 fL
  Mono: 2.2%
  Neu: 19%
  PT: 13.3 s
  Plat: 125.4 x10_4/uL
  RBC: 665.4 x10_4/ul
  Ret: 7.7%
  WBC: 81.5 x10_2/uL
  KIDNEY_L: 0.9 g
  KIDNEY_R: 0.9 g
  KIDNEY_TOTAL: 1.8 g
  LIVER: 10.4 g
  A/G: 0.9
  ALP: 1898.6 IU/L
  ALT: 48 IU/L
  AST: 70.2 IU/L
  BUN: 15.4 mg/dL
  CRE: 0.2 mg/dL
  Ca: 11.2 mg/dL
  Cl: 104.6 meq/L
  DBIL: 0.01 mg/dL
  GLC: 189.6 mg/dL
  IP: 7.4 mg/dL
  K: 4.2 meq/L
  LDH: 90.8 IU/L
  Na: 141 meq/L
  PL: 176.4 mg/dL
  RALB: 2.7 g/dL
  TBIL: 0.014 mg/dL
  TC: 95 mg/dL
  TG: 134.8 mg/dL
  TP: 5.7 g/dL
  gamma-GTP: 1 IU/L
